Experimental data taken from EP1951194B1, “ANTIMICROBIAL DECAPEPTIDE COMPOSITION FOR ORAL HYGIENE” (U.S. Government, as represented by the Secretary of the Army, priority 2005, dated 2018).
“Also recorded” adds a separate entry of the source. Ends that are not written are not given here.

What was measured:
oral biofilms [1] = experiment: In vitro plaque assay, viable counts of biofilms on saliva-coated HA disks; assay type: cell-based, human salivary bacteria; details: for reduction of viability, intact 66 h-old oral biofilms, compared to water treatment: KSL 200 µg/ml, benzalkonium chloride 0.001%, alone or combined, chlorhexidine positive control
Method: In conjunction with the dual flow cell system, a modification of an in vitro plaque model of biofilm formation described by Guggenheim et al. (Guggenheim et al., 2001) was used to determine the effects of tested antimicrobials and other agents on developed oral biofilms (see Appendix I for details). HA disks (Clarkson, south Williamsport, PA) were employed as substrates for salivary bacteria to form biofilms. […] Following 30 min exposure at 37°C, disks were rinsed with 3 × 1 ml of saline and transferred to sterile 15 ml polypropylene tubes containing 1 ml PBS. Biofilm cells adherent to surfaces (after treatment) were recovered by sonicating for 2 min at 5 watts with a Microson ultrasonic cell disrupter equipped with a cup horn (Misonix Inc., Farmingdale, NY). Settings including the time interval used in the sonication were pre-determined empirically to yield maximal recovery of adherent biofilm cells. The effect of KSL on disrupted biofilms was assessed by recovering biofilm cells from HA disks (45 h-old biofilms) through sonication as described above. The detached biofilm cells (in sterile dH2O) were mixed with an equal volume of aqueous KSL to obtain a final peptide concentration of 200 µg/ml, and the reaction mixtures incubated at 37°C for 30 min. The interactions of KSL and suspended biofilm cells were terminated by washing in PBS. To determine the effect of the surface-active agent (benzalkonium chloride; Sigma, St. […] Viable counts of biofilm cells derived from treated disks or disrupted biofilms were determined by spiral plating serially diluted samples onto blood agar plates. […] The 45 h-old biofilms were exposed to chlorhexidine for 1 min, and to water for 30 min at 37°C.

oral biofilms [2] = experiment: Live/dead staining of treated biofilms, confocal laser scanning microscopy; assay type: cell-based, human salivary bacteria; details: biofilms on saliva-coated HA surfaces, BacLight, compared to control
Method: Untreated (a-b) and treated (c-d). Images were obtained at intervals of 2 h (a, c) and 8 h (b, d) following inoculation. […] Images of treated versus untreated biofilm cells were obtained at intervals of 2 h (a, d), 6 h (b, e), and 10 h (c, f) after inoculation of salivary bacteria into the parallel chambers of the dual flow cell. […] (C) Confocal images of control and treated biofilms grown on saliva-coated HA surfaces. Live/Dead BacLight™ Viability kit (Molecular Probes, Eugene, OR) was used to assess the viability of biofilm cells exposed to different treatments. BacLight assay solution was prepared as described by the manufacturer and the specimens were stained in dark at room temperature for 15 min. […] An excitation wavelength of 488 nm was used and the fluorescence light emitted was collected by two separate emission filters, 500-530 nm (SYTO 9, live), and 650-710 nm (propidium iodide, dead).

[3] = assay type: physicochemical; details: pH 5.7
Method: Test solutions of KSL were prepared using a stock peptide solution of 10 mg/ml in deionized water. The degradation of KSL peptide was investigated in sodium acetate (pH 4), sodium phosphate (pH 7.4) and sodium borate (pH 9) buffers at 0.1 M buffer concentration. Each buffer solution containing 200 µg/ml of KSL was incubated in a temperature-controlled oven at 25, 37 and 55°C, respectively. Samples were taken at pre-determined times and analyzed under HPLC conditions described above. The stability of KSL was studied at 37°C in artificial saliva over a three day period. Artificial saliva was used in the in vitro release studies in an attempt to simulate actual conditions of use. The ingredients of the artificial saliva were as follows: sodium chloride, 0.844 g; potassium chloride, 1.200 g; calcium chloride dihydrate, 0.193 g; magnesium chloride hexahydrate, 0.111 g; potassium phosphate dibasic, 0.342 g; water to make to 1000 ml. The pH was adjusted with hydrochloric acid solution to pH 5.7 ± 0.1 [26].

[4] = assay type: physicochemical
Method: The chewing gum formulations were prepared following a procedure described previously. The gum base was heated at a temperature between 50 and 60°C for melting. When the gum base was of the proper fluid consistency, the KSL was added as a fine powder along with the other components. The temperature was kept constant while mixing the components with the gum base in a mortar. After mixing, the homogenous chewing gum mixture was extruded, cut into squares of approximate shape and size and hardened at room temperature overnight. The composition of the gum was as follows: 550 mg of gum base, 420 mg of sorbitol, 10 mg of mannitol, 10 mg of saccharin, and 10, 20 or 30 mg of KSL (total weight: approximately 1 g). In vitro release study of KSL from chewing gums was carried out using an in vitro chewing release apparatus consisting of two modules (AB FIA, Lund, Sweden) (Fig. 1). Each module consists of a thermostatted glass cell in which two vertically oriented pistons holding an upper and a lower chewing plate are mounted. The cells were filled with 40 ml of artificial saliva and the chewing gum was loaded onto the lower chewing surface. […] The released amount of KSL was determined by RP-HPLC.

Row | Compound | reduction of viable counts, intact biofilms (oral biofilms [1]; intact 45-h-old biofilms, KSL 200 µg/ml 30 min at 37°C, chlorhexidine 0.12% 1 min) | viability of biofilm cells by live/dead staining (oral biofilms [2]) | degradation in artificial saliva (HPLC) [3] | stability of KSL in the gum formulations manufactured at 50-60°C (HPLC of released KSL) [4] | reduction of viability, intact 66 h-old oral biofilms, compared to water treatment (oral biofilms [1]) | reduction of viability, intact 66 h-old oral biofilms, compared to water treatment (oral biofilms [1]; listed as Bzl)
1 | [H]/N=C(\N/C(=N/[H])NCCCCCCNC(=N)NC(=N)Nc1ccc(Cl)cc1)Nc1ccc(Cl)cc1 [chlorhexidine, chlorhexidine digluconate] | more reduction in viability; also recorded: larger reduction of viable counts | significantly reduced the viability | – | – | – | –
2 | KKVVFKVKFK-NH2 [KSL, Lys-Lys-Val-Val-Phe-Lys-Val-Lys-Phe-Lys-NH2] | – | – | no degradation peak detected | only an intact KSL peak | – | –
3 | benzalkonium chloride | – | less impact on the viability | – | – | less effect on the viability | no significant reductions in viability
